Test results as given in patent US20110256240A1, “Combination Therapy” (priority 2004, published 2011).

Test system: range of tumour models
Assay: anti-tumour activity in a range of models
Assay type: in vivo
Details: once-daily oral administration

SMILES: COc1cc2c(Oc3ccc4[nH]c(C)cc4c3F)ncnc2cc1OCCCN1CCCC1 [AZD2171, 4-(4-fluoro-2-methyl-1H-indol-5-yloxy)-6-methoxy-7-(3-(pyrrolidin-1-yl)propoxy)quinazoline]
- anti-tumour activity in a range of models: broad-spectrum anti-tumour activity
